# From publication PMC6918900, “Concentration-Dependent Activity of Hydromethylthionine on Cognitive Decline and Brain Atrophy in Mild to Moderate Alzheimer’s Disease” (Journal of Alzheimer's Disease, 2019)
# Where two headings read alike, the source gives them in different places.
# Legend:
# [1] = test system: patients with mild to moderate Alzheimer's disease; experiment: MRI lateral ventricular volume (LVV) change over 65 weeks by plasma exposure; type: in vivo, human; conditions: for LVV Difference ± SEM: split by 8 mg/day Cmax,ss median
# Description: (§1) Pharmacokinetic analyses were undertaken using plasma concentration data from patients who participated in either of two completed Phase III trials which have been described previously [[35, 36]]. In brief, the first (TRx-237-015) was a 15-month study which recruited 890 patients from 115 sites across 16 countries in EU, North America, Asia, and Russia. Patients had to be <90 years of age and have a diagnosis of mild to moderate probable AD according to National Institute of Aging (NIA) and Alzheimer’s Association (AA) criteria and a Mini-Mental State Examination (MMSE) score of 14–26 inclusive and with a Clinical Dementia Rating (CDR) total score of 1 or 2. The second study (TRx-237-005) was an 18-month trial which recruited 800 patients from 108 sites in Canada, United States, Australia, and Europe. Patients had to meet the same age and diagnosis criteria, except that they were required to have a MMSE score of 20–26 inclusive and a CDR total score of 0.5 or 1.0. Concomitant use of AChEIs or memantine (or both) was permitted in both studies provided this was at a stable dose for at least 18 weeks before randomization. Concomitant use of serotonergic antidepressant, antipsychotic (except clozapine or olanzapine), and sedative medications was also permitted at stable doses where clinically feasible. Patients were randomly assigned to receive LMTM at doses of 250, 150, or 8 mg/day in Study 015 and doses of 200 or 8 mg/day in Study TRx-237-005. Randomization in both studies was stratified according to geographical region, use of AD-labelled co-medications, and severity of AD. The co-primary outcomes in both studies were the Alzheimer’s Disease Assessment Scale–cognitive subscale, 11-item version (ADAS-cog11) and the Alzheimer’s Disease Co-operative Study–Activities of Daily Living, 23-item version (ADCS-ADL23) scale measured at baseline and every 3 months. MRI scans were undertaken at screening or baseline and at 3-month intervals. MRI acquisition protocol and parameters were standardized across sites and all data were centrally collected, quality-controlled, and analyzed blind by an imaging core lab (Bioclinica). Volumetric data were used to measure changes in whole brain volume (WBV, which provides a measure of the volume of grey and white matter), lateral ventricular volume (LVV), and other regional volumes including hippocampus, although only the global measures are reported in the present study. Baseline volumes were assessed using FreeSurfer 5.3, and volume change was assessed using Boundary Shift Integral and Tensor Based Morphometry for regional structures. Full details and study protocols for these two trials are available [[35, 36]].
# Having shown a concentration-dependent response for cognitive decline, a mixed-effects model for repeated measures analysis was used to characterize further the relationship between each efficacy endpoint and parent MT plasma exposure (steady state Cmax,ss) according to the following formula: pharmacological activity∼plasma-level×visit+co-medication-status×visit+co-medication-status×plasma-level+geographical-region+CDR-at-baseline+baseline-score×visit
# The following terms were categorical variables in the models: plasma exposure (Cmax,ss) (7 levels), visit (5 levels), co-medication status with AD drugs (2 levels), geographical region (2 levels), and CDR at baseline (3 levels). For the longitudinal analyses, plasma level was described by two levels (above or below threshold).
# [2] = test system: patients with mild to moderate Alzheimer's disease; experiment: Hill equation concentration-response analysis (ADAS-cog11 and WBV); type: in vivo, human
# Description: In addition to the exposure-response analyses described above, a further standard pharmacological concentration-response analysis was undertaken using the Hill equation [40] applied to the ADAS-cog11 and whole brain volume data to characterize the overall response profile quantitatively and to investigate the lower concentration limit of the treatment effect. The Hill equation was applied under the assumption of non-cooperativity and was applied with an additional linear term to permit trends occurring at high concentrations to be included in the model. […] This was fitted separately for LMTM added to approved symptomatic treatments and for those who took the drug as monotherapy, with parameters estimated using a non-linear least squares estimator.
# In order to relate Cmax,ss values to theoretical doses, a linear model was fitted to the mean plasma concentrations at the 8, 150, 200 and 250 mg/day doses: estimated dose=22.22×(Cmax, ss-0.016) where dose is in mg/day and Cmax,ss is ng/ml units.
# [3] = Population PK: parent MT steady state plasma Cmax,ss in Phase III patients; type: in vivo, human; conditions: for % high Cmax (Cmax,ss > 0.373 ng/ml): LMTM 8 mg/day; for Cmax: human, plasma, oral, parent MT
# Description: as §1
# Blood samples for assessment of parent MT, N-desmethyl MT, and total MT (sum of parent MT and a labile LMT conjugate) were collected from each patient on the first treatment visit (two samples: pre-dose and approximately 3.5 h after the dose) and at each subsequent on-treatment visit. The protocol specified that PK plasma sampling was to be conducted only at sites with adequate facilities (i.e., a refrigerated centrifuge and adequate capability to reliably freeze samples). Blinded analyses were conducted at the University of Aberdeen GLP Test Facility. MT levels in plasma were measured using liquid chromatography-tandem mass spectrometry. […] The method was validated for use in the Phase III studies over the range 0.2 to 10 ng/ml. Extrapolated MT concentrations were available below the lower limit of quantitation (but above the lower limit of detection) in approximately 35% of the Day 1 patients randomized to the 8 mg/day dose. The method was validated for long-term sample storage of 162 days at –20°C. […] Plasma samples from a total of 1,296 patients from the two Phase III studies in AD were available for analysis and, of these, 1,162 also had baseline and post-baseline efficacy outcome data available for analysis. […]
# Route of clearance = conditions: in vivo
structure (smiles),measurement,setting,value
"CN(C)c1ccc2c(c1)Sc1cc(N(C)C)ccc1N2 [LMTM, leuco-methylthioninium bis(hydromethanesulphonate)]",LVV Difference±SEM in change from baseline,"[1]; LMTM 8 mg/day as add-on therapy, Cmax,ss above vs below 0.373 ng/ml",–1.81±0.39 cm^3
same,LVV Difference±SEM in change from baseline,"[1]; LMTM 8 mg/day as monotherapy, Cmax,ss above vs below 0.373 ng/ml",–1.60±0.46 cm^3
same,LVV Difference ± SEM,[1]; LMTM 8 mg/day as monotherapy,-0.82 ± 0.44 cm3
same,LVV Difference±SEM in change from baseline,"[1]; LMTM 8 mg/day, low Cmax add-on versus high Cmax monotherapy",–3.15±0.62 cm^3
same,LVV Difference±SEM in change from baseline,"[1]; all patients, high vs low exposure split by Cmax,ss 0.373 ng/ml, 65 weeks",–1.52±0.34 cm^3
same,LVV Difference ± SEM,[1]; all patients,-0.80 ± 0.30 cm3
same,LVV Difference±SEM in change from baseline,"[1]; patients receiving LMTM 8 mg/day, split by Cmax,ss 0.373 ng/ml, 65 weeks",–1.76±0.38 cm^3
same,maximum predicted pharmacological activity as add-on therapy relative to monotherapy,[2]; Hill equation analysis,about half
same,plasma concentrations at which treatment effects reach a plateau,[2]; Hill equation estimates,0.9 to 4.1 ng/mL
same,theoretical doses corresponding to the plateau,[2]; Hill equation estimates,16 to 80 mg/day
same,"lower limit of drug activity (plasma Cmax,ss)","[2]; monotherapy and add-on therapy, cognitive decline and whole brain atrophy",approximately 0.29 ng/ml
same,patients with subthreshold plasma levels (below 0.2 ng/ml) after first dose on Day 1,[3]; 8 mg/day,35%
same,steady state plasma levels,[3]; 8 mg/day dose,0.3 to 0.8 ng/mL
same,"probability of achieving the Cmax,ss threshold of 0.373 ng/ml","[3]; 8 mg/day, creatinine clearance 20 ml/min/1.73 m^2",~100%
same,"probability of achieving the Cmax,ss threshold of 0.373 ng/ml","[3]; 8 mg/day, creatinine clearance 106 ml/min/1.73 m^2",essentially zero
same,"% high Cmax (Cmax,ss > 0.373 ng/ml)","[3]; patients not using anti-inflammatory and antirheumatic products, non-steroids",67.3%
same,"% high Cmax (Cmax,ss > 0.373 ng/ml)",[3]; patients not using antihypertensive/antiarrhythmic drugs,60.6%
same,"% high Cmax (Cmax,ss > 0.373 ng/ml)",[3]; patients not using antithrombotic agents,62.6%
same,"% high Cmax (Cmax,ss > 0.373 ng/ml)","[3]; patients not using blood glucose lowering drugs, excluding insulins",65.6%
same,"% high Cmax (Cmax,ss > 0.373 ng/ml)",[3]; patients not using drugs for peptic ulcer and gastro-esophageal reflux disease,65.3%
same,"% high Cmax (Cmax,ss > 0.373 ng/ml)",[3]; patients not using lipid modifying agents,66.0%
same,"% high Cmax (Cmax,ss > 0.373 ng/ml)",[3]; patients not using thyroid preparations,64.3%
same,"% high Cmax (Cmax,ss > 0.373 ng/ml)","[3]; patients using anti-inflammatory and antirheumatic products, non-steroids",59.5%
same,"% high Cmax (Cmax,ss > 0.373 ng/ml)",[3]; patients using antithrombotic agents,70.3%
same,"% high Cmax (Cmax,ss > 0.373 ng/ml)","[3]; patients using blood glucose lowering drugs, excluding insulins",66.2%
same,"% high Cmax (Cmax,ss > 0.373 ng/ml)",[3]; patients using drugs for peptic ulcer and gastro-esophageal reflux disease,66.9%
same,"% high Cmax (Cmax,ss > 0.373 ng/ml)",[3]; patients using lipid modifying agents,65.2%
same,"% high Cmax (Cmax,ss > 0.373 ng/ml)",[3]; patients using thyroid preparations,74.1%
same,estimated mean plasma concentration,[3]; expected at 16 mg/day,0.88 ± 0.18 ng/mL
same,plasma concentrations,[3]; high doses (150–250 mg/day),4 to 21 ng/mL
same,Cmax,"[3]; 8 mg/day, 8 mg/day – Group 1, read-out: Cmax,ss Mean (SD)",0.334 ng/mL
same,Cmax,"[3]; 8 mg/day, 8 mg/day – Group 1, read-out: Cmax,ss Range",0.257 to 0.373 ng/mL
same,Cmax,"[3]; 8 mg/day, 8 mg/day – Group 2, read-out: Cmax,ss Range",0.373 to 0.414 ng/mL
same,Cmax,"[3]; 8 mg/day, 8 mg/day – Group 3, read-out: Cmax,ss Mean (SD)",0.449 ng/mL
same,Cmax,"[3]; 8 mg/day, 8 mg/day – Group 3, read-out: Cmax,ss Range",0.415 to 0.478 ng/mL
same,Cmax,"[3]; 8 mg/day, 8 mg/day – Group 4, read-out: Cmax,ss Mean (SD)",0.565 ng/mL
same,Cmax,"[3]; 8 mg/day, 8 mg/day – Group 4, read-out: Cmax,ss Range",0.479 to 0.812 ng/mL
same,Cmax,"[3]; 150 mg/day, 150 mg/day, read-out: Cmax,ss Mean (SD)",7.82 ng/mL
same,Cmax,"[3]; 150 mg/day, 150 mg/day, read-out: Cmax,ss Range",5.1 to 18.6 ng/mL
same,Cmax,"[3]; 200 mg/day, 200 mg/day, read-out: Cmax,ss Mean (SD)",10.1 ng/mL
same,Cmax,"[3]; 200 mg/day, 200 mg/day, read-out: Cmax,ss Range",6.56 to 21.3 ng/mL
same,Cmax,"[3]; 250 mg/day, 250 mg/day, read-out: Cmax,ss Mean (SD)",12.6 ng/mL
same,Cmax,"[3]; 250 mg/day, 250 mg/day, read-out: Cmax,ss Range",8.83 to 21.2 ng/mL
same,Cmax,"[3]; 8 mg/day – Group 2, read-out: Cmax,ss Mean (SD)",0.393 ng/mL
same,share of clearance via the kidneys,Route of clearance,70%
